Data reported in the supplement of paper PMC12406974.

Tests used:
Test in all cases: maximum observed lethal fraction; higher = more cell death
U2OS BCL2L12-KO = test system: U2OS BCL2L12-KO
U2OS PTBP1-KO = test system: U2OS PTBP1-KO
U2OS = test system: U2OS
U2OS BAX/BAK1 DKO = test system: U2OS BAX/BAK1 DKO
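Further: FLICK assay: SYTOX Green fluorescence of dead cells tracked over time after drugging in 96-well plates, with total cell counts taken from Triton X-100 lysed wells.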

Row | Compound | maximum observed lethal fraction (U2OS BCL2L12-KO; 0.01 µM) | maximum observed lethal fraction (U2OS BCL2L12-KO; 0.0316 µM) | maximum observed lethal fraction (U2OS BCL2L12-KO; 0.1 µM) | maximum observed lethal fraction (U2OS BCL2L12-KO; 0.316 µM) | maximum observed lethal fraction (U2OS BCL2L12-KO; 1 µM) | maximum observed lethal fraction (U2OS PTBP1-KO; 0.01 µM) | maximum observed lethal fraction (U2OS PTBP1-KO; 0.0316 µM) | maximum observed lethal fraction (U2OS PTBP1-KO; 0.1 µM) | maximum observed lethal fraction (U2OS PTBP1-KO; 0.316 µM) | maximum observed lethal fraction (U2OS PTBP1-KO; 1 µM) | maximum observed lethal fraction (U2OS; 0.01 µM) | maximum observed lethal fraction (U2OS; 0.0316 µM) | maximum observed lethal fraction (U2OS; 0.1 µM) | maximum observed lethal fraction (U2OS; 0.316 µM) | maximum observed lethal fraction (U2OS; 1 µM) | maximum observed lethal fraction (U2OS BAX/BAK1 DKO; 0.01 µM) | maximum observed lethal fraction (U2OS BAX/BAK1 DKO; 0.0316 µM) | maximum observed lethal fraction (U2OS BAX/BAK1 DKO; 0.1 µM) | maximum observed lethal fraction (U2OS BAX/BAK1 DKO; 0.316 µM) | maximum observed lethal fraction (U2OS BAX/BAK1 DKO; 1 µM) | other results
1 | Cc1[nH]c2ccccc2c1CCNCc1ccc(/C=C/C(=O)NO)cc1 [Panobinostat] | 0.352 | 0.775 | 0.856 | 0.838 | 0.895 | 0.349 | 0.527 | 0.601 | 0.603 | 0.65 | 0.265 | 0.655 | 0.761 | 0.802 | 0.851 | 0.0894 | 0.102 | 0.108 | 0.0953 | 0.0939 | maximum observed lethal fraction (U2OS BCL2L12-KO; 0.001 µM): 0.0774; maximum observed lethal fraction (U2OS BCL2L12-KO; 0.00316 µM): 0.0897; maximum observed lethal fraction (U2OS PTBP1-KO; 0.001 µM): 0.0914; maximum observed lethal fraction (U2OS PTBP1-KO; 0.00316 µM): 0.11; maximum observed lethal fraction (U2OS; 0.001 µM): 0.0735; maximum observed lethal fraction (U2OS; 0.00316 µM): 0.0836; maximum observed lethal fraction (U2OS BAX/BAK1 DKO; 0.001 µM): 0.0715; maximum observed lethal fraction (U2OS BAX/BAK1 DKO; 0.00316 µM): 0.0768
2 | CO[C@H]1C[C@@H]2CC[C@@H](C)[C@@](O)(O2)C(=O)C(=O)N2CCCC[C@H]2C(=O)O[C@H]([C@H](C)C[C@@H]2CC[C@@H](O)[C@H](OC)C2)CC(=O)[C@H](C)/C=C(\C)[C@@H](O)[C@@H](OC)C(=O)[C@H](C)C[C@H](C)/C=C/C=C/C=C/1C [Rapamycin] | 0.0761 | 0.0732 | 0.0721 | 0.0738 | 0.0786 | 0.0742 | 0.0686 | 0.0757 | 0.0711 | 0.0784 | 0.062 | 0.0603 | 0.0606 | 0.0645 | 0.061 | 0.0624 | 0.0616 | 0.0646 | 0.0631 | 0.0613 | maximum observed lethal fraction (U2OS BCL2L12-KO; 3.16 µM): 0.084; maximum observed lethal fraction (U2OS BCL2L12-KO; 10 µM): 0.0965; maximum observed lethal fraction (U2OS PTBP1-KO; 3.16 µM): 0.0724; maximum observed lethal fraction (U2OS PTBP1-KO; 10 µM): 0.0767; maximum observed lethal fraction (U2OS; 3.16 µM): 0.0607; maximum observed lethal fraction (U2OS; 10 µM): 0.0674; maximum observed lethal fraction (U2OS BAX/BAK1 DKO; 3.16 µM): 0.0695; maximum observed lethal fraction (U2OS BAX/BAK1 DKO; 10 µM): 0.0695
3 | CN(C)CC[C@H](CSc1ccccc1)Nc1ccc(S(=O)(=O)NC(=O)c2ccc(N3CCN(Cc4ccccc4-c4ccc(Cl)cc4)CC3)cc2)cc1[N+](=O)[O-] [ABT-737] |  | 0.0733 | 0.076 | 0.0912 | 0.127 |  | 0.0704 | 0.0736 | 0.0737 | 0.0836 |  | 0.0571 | 0.0649 | 0.0818 | 0.115 |  | 0.0579 | 0.0557 | 0.0559 | 0.0569 | maximum observed lethal fraction (U2OS BCL2L12-KO; 3.16 µM): 0.28; maximum observed lethal fraction (U2OS BCL2L12-KO; 10 µM): 0.596; maximum observed lethal fraction (U2OS BCL2L12-KO; 31.6 µM): 0.84; maximum observed lethal fraction (U2OS PTBP1-KO; 3.16 µM): 0.13; maximum observed lethal fraction (U2OS PTBP1-KO; 10 µM): 0.38; maximum observed lethal fraction (U2OS PTBP1-KO; 31.6 µM): 0.617; maximum observed lethal fraction (U2OS; 3.16 µM): 0.189; maximum observed lethal fraction (U2OS; 10 µM): 0.462; maximum observed lethal fraction (U2OS; 31.6 µM): 0.788; maximum observed lethal fraction (U2OS BAX/BAK1 DKO; 3.16 µM): 0.0568; maximum observed lethal fraction (U2OS BAX/BAK1 DKO; 10 µM): 0.0722; maximum observed lethal fraction (U2OS BAX/BAK1 DKO; 31.6 µM): 0.082
4 | COc1ccc(C[C@H]2NC[C@H](O)[C@H]2OC(C)=O)cc1 [Anisomycin] |  |  |  | 0.218 | 0.159 |  |  |  | 0.174 | 0.177 |  |  |  | 0.277 | 0.456 |  |  |  | 0.114 | 0.119 | maximum observed lethal fraction (U2OS BCL2L12-KO; 3.16 µM): 0.181; maximum observed lethal fraction (U2OS BCL2L12-KO; 10 µM): 0.32; maximum observed lethal fraction (U2OS BCL2L12-KO; 31.6 µM): 0.353; maximum observed lethal fraction (U2OS BCL2L12-KO; 100 µM): 0.387; maximum observed lethal fraction (U2OS BCL2L12-KO; 316 µM): 0.444; maximum observed lethal fraction (U2OS PTBP1-KO; 3.16 µM): 0.239; maximum observed lethal fraction (U2OS PTBP1-KO; 10 µM): 0.337; maximum observed lethal fraction (U2OS PTBP1-KO; 31.6 µM): 0.426; maximum observed lethal fraction (U2OS PTBP1-KO; 100 µM): 0.403; maximum observed lethal fraction (U2OS PTBP1-KO; 316 µM): 0.408; maximum observed lethal fraction (U2OS; 3.16 µM): 0.711; maximum observed lethal fraction (U2OS; 10 µM): 0.845; maximum observed lethal fraction (U2OS; 31.6 µM): 0.888; maximum observed lethal fraction (U2OS; 100 µM): 0.879; maximum observed lethal fraction (U2OS; 316 µM): 0.903; maximum observed lethal fraction (U2OS BAX/BAK1 DKO; 3.16 µM): 0.103; maximum observed lethal fraction (U2OS BAX/BAK1 DKO; 10 µM): 0.111; maximum observed lethal fraction (U2OS BAX/BAK1 DKO; 31.6 µM): 0.121; maximum observed lethal fraction (U2OS BAX/BAK1 DKO; 100 µM): 0.109; maximum observed lethal fraction (U2OS BAX/BAK1 DKO; 316 µM): 0.107
5 | CC(C)C[C@@H](C=O)NC(=O)[C@H](CC(C)C)NC(=O)[C@H](CC(C)C)NC(=O)OCc1ccccc1 [MG132] | 0.0715 | 0.07 | 0.0753 | 0.327 | 0.817 | 0.0698 | 0.0706 | 0.0708 | 0.182 | 0.683 | 0.0559 | 0.0568 | 0.0844 | 0.698 | 0.86 | 0.0534 | 0.0549 | 0.0687 | 0.0897 | 0.337 | maximum observed lethal fraction (U2OS BCL2L12-KO; 3.16 µM): 0.914; maximum observed lethal fraction (U2OS BCL2L12-KO; 10 µM): 0.972; maximum observed lethal fraction (U2OS PTBP1-KO; 3.16 µM): 0.813; maximum observed lethal fraction (U2OS PTBP1-KO; 10 µM): 0.923; maximum observed lethal fraction (U2OS; 3.16 µM): 0.893; maximum observed lethal fraction (U2OS; 10 µM): 0.926; maximum observed lethal fraction (U2OS BAX/BAK1 DKO; 3.16 µM): 0.434; maximum observed lethal fraction (U2OS BAX/BAK1 DKO; 10 µM): 0.384
6 | Cc1c2oc3c(C)ccc(C(=O)N[C@@H]4C(=O)N[C@H](C(C)C)C(=O)N5CCC[C@H]5C(=O)N(C)CC(=O)N(C)[C@@H](C(C)C)C(=O)O[C@@H]4C)c3nc-2c(C(=O)N[C@@H]2C(=O)N[C@H](C(C)C)C(=O)N3CCC[C@H]3C(=O)N(C)CC(=O)N(C)[C@@H](C(C)C)C(=O)O[C@@H]2C)c(N)c1=O [Actinomycin-D] | 0.648 | 0.35 | 0.254 | 0.406 | 0.377 | 0.311 | 0.206 | 0.243 | 0.368 | 0.328 | 0.505 | 0.545 | 0.4 | 0.637 | 0.578 | 0.0792 | 0.088 | 0.0799 | 0.0933 | 0.0822 | maximum observed lethal fraction (U2OS BCL2L12-KO; 0.001 µM): 0.101; maximum observed lethal fraction (U2OS BCL2L12-KO; 0.00316 µM): 0.199; maximum observed lethal fraction (U2OS PTBP1-KO; 0.001 µM): 0.0967; maximum observed lethal fraction (U2OS PTBP1-KO; 0.00316 µM): 0.164; maximum observed lethal fraction (U2OS; 0.001 µM): 0.0789; maximum observed lethal fraction (U2OS; 0.00316 µM): 0.0968; maximum observed lethal fraction (U2OS BAX/BAK1 DKO; 0.001 µM): 0.0757; maximum observed lethal fraction (U2OS BAX/BAK1 DKO; 0.00316 µM): 0.0754
7 | CN(C)C/C=C/C(=O)Nc1ccc(C(=O)Nc2cccc(Nc3ncc(Cl)c(-c4c[nH]c5ccccc45)n3)c2)cc1 [THZ1] | 0.0888 | 0.274 | 0.475 | 0.467 | 0.582 | 0.101 | 0.239 | 0.388 | 0.33 | 0.486 | 0.0758 | 0.274 | 0.452 | 0.441 | 0.57 | 0.0742 | 0.0981 | 0.0902 | 0.1 | 0.109 | maximum observed lethal fraction (U2OS BCL2L12-KO; 3.16 µM): 0.742; maximum observed lethal fraction (U2OS BCL2L12-KO; 10 µM): 0.761; maximum observed lethal fraction (U2OS PTBP1-KO; 3.16 µM): 0.627; maximum observed lethal fraction (U2OS PTBP1-KO; 10 µM): 0.707; maximum observed lethal fraction (U2OS; 3.16 µM): 0.678; maximum observed lethal fraction (U2OS; 10 µM): 0.76; maximum observed lethal fraction (U2OS BAX/BAK1 DKO; 3.16 µM): 0.157; maximum observed lethal fraction (U2OS BAX/BAK1 DKO; 10 µM): 0.12
